Reference: ChEMBL document CHEMBL1201862, “PubChem BioAssay data set” (2004)
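The compound was tested at five concentrations on cells cultured in 96-well plates, with a 48-hour exposure period. GI50: concentration for 50% inhibition of growth.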 Calls of active or inactive are those of the source. Rule as the data show it: active = GI50 up to about 1.1 µM and inactive = higher.

Columns and labels:
Test in all cases: NCI tumour cell line growth inhibition, 48 h
CCRF-CEM = test system: CCRF-CEM
DU-145 = test system: DU-145
PC-3 = test system: PC-3
HCC 2998 = test system: HCC 2998
SF-539 = test system: SF-539
OVCAR-3 = test system: OVCAR-3
UACC-62 = test system: UACC-62
SK-MEL-5 = test system: SK-MEL-5
U-251 = test system: U-251
SK-MEL-2 = test system: SK-MEL-2
EKVX = test system: EKVX
SW-620 = test system: SW-620
RPMI-8226 = test system: RPMI-8226
A498 = test system: A498
HOP-62 = test system: HOP-62
NCI/ADR-RES = test system: NCI/ADR-RES
MDA-MB-231 = test system: MDA-MB-231
SK-MEL-28 = test system: SK-MEL-28
T47D = test system: T47D
IGROV-1 = test system: IGROV-1
Malme-3M = test system: Malme-3M
UACC-257 = test system: UACC-257
UO-31 = test system: UO-31
HL-60 = test system: HL-60
786-0 = test system: 786-0
Hs-578T = test system: Hs-578T
NCI-H226 = test system: NCI-H226
MDA-MB-435 = test system: MDA-MB-435
MCF7 = test system: MCF7
KM12 = test system: KM12
NCI-H460 = test system: NCI-H460
SNB-19 = test system: SNB-19
COLO 205 = test system: COLO 205
MOLT-4 = test system: MOLT-4
MDA-N = test system: MDA-N
NCI-H522 = test system: NCI-H522
SF-295 = test system: SF-295
SF-268 = test system: SF-268
K562 = test system: K562
SNB-75 = test system: SNB-75
LOX IMVI = test system: LOX IMVI
HCT-15 = test system: HCT-15
NCI-H23 = test system: NCI-H23
SR = test system: SR
CAKI-1 = test system: CAKI-1
HT-29 = test system: HT-29
OVCAR-8 = test system: OVCAR-8
HCT-116 = test system: HCT-116
SN12C = test system: SN12C
HOP-92 = test system: HOP-92
OVCAR-4 = test system: OVCAR-4
TK-10 = test system: TK-10
ACHN = test system: ACHN
M14 = test system: M14
OVCAR-5 = test system: OVCAR-5
RXF 393 = test system: RXF 393
A549 = test system: A549
SK-OV-3 = test system: SK-OV-3

Measured: GI50

CN(C)C1COC2Cc3ccccc3C1O2 (stereo not drawn)
inactive: CCRF-CEM > 100 µM | DU-145 > 100 µM | PC-3 > 100 µM | HCC 2998 > 100 µM | SF-539 > 100 µM | OVCAR-3 > 100 µM | UACC-62 > 100 µM | SK-MEL-5 > 100 µM | U-251 > 100 µM | SK-MEL-2 > 100 µM | EKVX > 100 µM | SW-620 > 100 µM | RPMI-8226 > 100 µM | A498 > 100 µM | HOP-62 > 100 µM | NCI/ADR-RES > 100 µM | MDA-MB-231 > 100 µM | SK-MEL-28 > 100 µM | T47D > 100 µM | IGROV-1 > 100 µM | Malme-3M > 100 µM | UACC-257 > 100 µM | UO-31 > 100 µM | HL-60 > 100 µM | 786-0 > 100 µM | Hs-578T > 100 µM | NCI-H226 > 100 µM | MDA-MB-435 > 100 µM | MCF7 > 100 µM | KM12 > 100 µM | NCI-H460 > 100 µM | SNB-19 > 100 µM | COLO 205 > 100 µM | MOLT-4 > 100 µM | MDA-N > 100 µM | NCI-H522 > 100 µM

CS/C1=C(\c2ccc(C)cc2)N(c2ccccc2)C(=O)C(=O)N(c2ccccc2)/C(c2ccc(C)cc2)=C(/SC)SS1
inactive: CCRF-CEM > 100 µM | SF-295 > 100 µM | SF-268 > 100 µM | DU-145 > 100 µM | K562 > 100 µM | PC-3 > 100 µM | HCC 2998 > 100 µM | SNB-75 > 100 µM | SF-539 > 100 µM | OVCAR-3 > 100 µM | UACC-62 > 100 µM | LOX IMVI > 100 µM | U-251 > 100 µM | SK-MEL-2 > 100 µM | EKVX > 100 µM | NCI-H23 > 100 µM | SW-620 > 100 µM | RPMI-8226 > 100 µM | A498 50.5 µM | HOP-62 > 100 µM | SR > 100 µM | NCI/ADR-RES > 100 µM | CAKI-1 > 100 µM | HT-29 > 100 µM | MDA-MB-231 > 100 µM | SK-MEL-28 > 100 µM | T47D > 100 µM | OVCAR-8 > 100 µM | IGROV-1 > 100 µM | Malme-3M > 100 µM | UACC-257 > 100 µM | UO-31 > 100 µM | HL-60 > 100 µM | HCT-116 > 100 µM | 786-0 > 100 µM | SN12C > 100 µM | HOP-92 > 100 µM | OVCAR-4 > 100 µM | MDA-MB-435 > 100 µM | MCF7 > 100 µM | TK-10 > 100 µM | ACHN > 100 µM | NCI-H460 > 100 µM | SNB-19 > 100 µM | M14 82.8 µM | OVCAR-5 > 100 µM | COLO 205 > 100 µM | MOLT-4 > 100 µM | MDA-N > 100 µM | NCI-H522 > 100 µM
> 100 µM: HCT-15

COc1cc([C@@H]2c3cc4c(cc3[C@@H](Nc3ccc(NC(=O)c5cc([N+](=O)[O-])cn5C)cc3)[C@H]3COC(=O)[C@H]23)OCO4)cc(OC)c1O
0.307 µM: HCT-15
active: SF-268 0.118 µM | DU-145 < 0.013 µM | K562 0.132 µM | PC-3 0.143 µM | HCC 2998 0.223 µM | SNB-75 0.0614 µM | SF-539 0.0617 µM | OVCAR-3 0.449 µM | UACC-62 0.0612 µM | SK-MEL-2 0.938 µM | EKVX 0.658 µM | NCI-H23 0.0401 µM | SW-620 0.162 µM | HOP-62 0.0198 µM | RXF 393 0.352 µM | SR < 0.01 µM | HT-29 0.195 µM | SK-MEL-28 0.621 µM | T47D 0.0134 µM | OVCAR-8 0.11 µM | IGROV-1 0.265 µM | UACC-257 0.658 µM | UO-31 0.231 µM | HL-60 < 0.0213 µM | HCT-116 0.138 µM | 786-0 0.0627 µM | HOP-92 0.0796 µM | A549 0.0195 µM | KM12 0.216 µM | TK-10 0.479 µM | ACHN < 0.0108 µM | SNB-19 0.054 µM | M14 0.0771 µM | OVCAR-5 0.468 µM | COLO 205 0.219 µM | NCI-H522 0.291 µM

C[C@@H](C(=O)O)c1ccc(-c2ccccc2)c(F)c1 [TARENFLURBIL]
inactive: CCRF-CEM > 100 µM | SF-295 > 100 µM | DU-145 > 100 µM | SK-OV-3 > 100 µM | K562 > 100 µM | PC-3 > 100 µM | HCC 2998 > 100 µM | OVCAR-3 > 100 µM | UACC-62 > 100 µM | SK-MEL-5 > 100 µM | LOX IMVI > 100 µM | U-251 > 100 µM | NCI-H23 > 100 µM | SW-620 > 100 µM | RPMI-8226 > 100 µM | A498 > 100 µM | RXF 393 > 100 µM | SR > 100 µM | NCI/ADR-RES > 100 µM | CAKI-1 > 100 µM | HT-29 > 100 µM | MDA-MB-231 > 100 µM | T47D > 100 µM | OVCAR-8 > 100 µM | IGROV-1 > 100 µM | UACC-257 > 100 µM | UO-31 > 71.9 µM | HCT-116 > 100 µM | 786-0 > 100 µM | HOP-92 > 100 µM | OVCAR-4 > 100 µM | KM12 > 100 µM | TK-10 > 100 µM | ACHN > 100 µM | NCI-H460 > 100 µM | SNB-19 > 73.6 µM | M14 > 100 µM | OVCAR-5 > 100 µM | COLO 205 > 100 µM | MOLT-4 > 100 µM

Cc1occc(=O)c1O [MALTOL]
inactive: CCRF-CEM > 100 µM | SF-295 > 100 µM | SF-268 > 100 µM | DU-145 > 100 µM | K562 > 100 µM | PC-3 > 100 µM | HCC 2998 > 100 µM | SNB-75 > 100 µM | SF-539 > 100 µM | OVCAR-3 > 100 µM | SK-MEL-5 > 100 µM | LOX IMVI > 100 µM | U-251 > 100 µM | SK-MEL-2 > 100 µM | EKVX > 100 µM | NCI-H23 > 100 µM | SW-620 > 100 µM | RPMI-8226 > 100 µM | HOP-62 > 100 µM | SR > 100 µM | NCI/ADR-RES > 100 µM | CAKI-1 > 100 µM | HT-29 > 100 µM | MDA-MB-231 3.84 µM | SK-MEL-28 > 100 µM | T47D > 100 µM | OVCAR-8 > 100 µM | IGROV-1 > 100 µM | Malme-3M > 100 µM | UACC-257 > 100 µM | UO-31 > 100 µM | HL-60 > 100 µM | HCT-116 > 100 µM | 786-0 > 100 µM | SN12C 5 µM | HOP-92 > 100 µM | OVCAR-4 > 100 µM | Hs-578T > 100 µM | NCI-H226 > 100 µM | MDA-MB-435 > 100 µM | A549 > 100 µM | MCF7 > 100 µM | KM12 > 100 µM | TK-10 > 100 µM | ACHN > 100 µM | NCI-H460 > 100 µM | SNB-19 > 100 µM | M14 > 100 µM | OVCAR-5 > 100 µM | COLO 205 > 100 µM | MOLT-4 > 100 µM | MDA-N > 100 µM | NCI-H522 > 100 µM
4.25 µM: HCT-15

CC(CC[C@@]1(C)C(=O)CCC2O[C@]21C)[C@H]1C[C@@H](c2ccoc2)OC1=O (stereo partly drawn)
inactive: CCRF-CEM 19.6 µM | SF-295 > 100 µM | SF-268 31 µM | DU-145 57.9 µM | SK-OV-3 > 100 µM | K562 22.3 µM | PC-3 62.2 µM | HCC 2998 > 100 µM | SF-539 35.7 µM | OVCAR-3 26.9 µM | UACC-62 95.9 µM | SK-MEL-5 > 100 µM | LOX IMVI 19.8 µM | U-251 35.9 µM | SK-MEL-2 > 100 µM | EKVX > 100 µM | NCI-H23 61.4 µM | SW-620 31.9 µM | RPMI-8226 35.5 µM | A498 > 100 µM | HOP-62 > 100 µM | RXF 393 17.2 µM | SR 97.9 µM | NCI/ADR-RES 45.6 µM | CAKI-1 26.5 µM | HT-29 74.5 µM | SK-MEL-28 23.6 µM | T47D > 100 µM | IGROV-1 67.3 µM | Malme-3M 31.5 µM | UACC-257 > 100 µM | UO-31 17.2 µM | HL-60 23.7 µM | HCT-116 19.5 µM | 786-0 28.8 µM | SN12C 27.8 µM | HOP-92 28.4 µM | OVCAR-4 20.6 µM | Hs-578T 39.3 µM | NCI-H226 > 100 µM | MDA-MB-435 44.1 µM | A549 > 100 µM | MCF7 65.6 µM | KM12 > 100 µM | TK-10 35.8 µM | ACHN 22.1 µM | NCI-H460 > 100 µM | SNB-19 > 100 µM | M14 72.9 µM | OVCAR-5 61.1 µM | COLO 205 24.2 µM | MOLT-4 28.3 µM | MDA-N 57.1 µM | NCI-H522 3.17 µM
35.7 µM: HCT-15
